The first data set is described as follows: logP by HPLC on reversed-phase column (C 18), EEC Directive 79/831 Annex V.A8. It is filed as physicochemical. To be noted: C 18, 40° C., 0.1% aqueous formic acid and acetonitrile. How it is done: Temperature: 40° C.; Mobile phases: 0.1% aqueous formic acid and acetonitrile; linear gradient from 10% acetonitrile to 90% acetonitrile.
For `CCN(C)C=Nc1ccc(Oc2ncc(C(F)(F)F)cc2Cl)cc1C` [Example 2], the logPa came to 2.21.
Same read-out and setting: under `CCN(C)C=Nc1ccc(Oc2cc(Cl)ccn2)cc1C` [Example 3] stands 1.50.
Still for that read-out and setting: for `CCN(C)C=Nc1ccc(Oc2cc(C(F)(F)F)cc(Cl)n2)cc1C` [Example 4] the value was 2.20.
The same measure, in the same setting: for `CCN(C)C=Nc1ccc(Oc2ccc(Cl)cn2)cc1C` [Example 5] the value was 1.58; for `CCN(C)C=Nc1cc(C)c(Oc2ccc(C(F)(F)F)c(Cl)n2)cc1C` [Example 6], 2.36.
Consider `Cc1cc(Oc2cc(C(F)(F)F)cc(Cl)n2)ccc1N=CN(C)C(C)C` [Example 7], for which the logPa was 2.22.
`CCN(C)C=Nc1cc(C)c(Oc2ccc(Cl)cn2)cc1C` [Example 8] gave a logPa of 1.84.
On the same count and under the same terms, for `CCN(C)C=Nc1ccc(Oc2ccc(C(F)(F)F)cn2)cc1C` [Example 9] the value was 1.79.
Still for that read-out and setting: under `CCN(C)C=Nc1cc(C)c(Oc2ccc(C(F)(F)F)cn2)cc1C` [Example 10] stands 1.86.
Still for that read-out and setting: for `CCN(C)C=Nc1cc(C)c(Oc2ccc(C(F)(F)F)c(Cl)n2)cc1C` [Example 11] the value was 2.11.
With `Cc1cc(Oc2cc(C(F)(F)F)cc(Cl)n2)c(C)cc1N=CN(C)C(C)C` [Example 12], the logPa came to 2.52.
With `Cc1cc(Oc2ccc(C(F)(F)F)c(Cl)n2)c(C)cc1N=CN(C)C(C)C` [Example 13], the logPa was determined as 2.51.
Compound `CCN(C)C=Nc1cc(C)c(Oc2ccc(I)cn2)cc1C` [Example 14] gave a logPa of 2.10.
Regarding `CCN(C)C=Nc1cc(C)c(Oc2cc(-c3ccccc3Cl)c(C)cn2)cc1C` [Example 15], the logPa came to 2.58.
The same measure, in the same setting: under `CCN(C)C=Nc1ccc(Oc2cc(-c3ccccc3Cl)c(C)cn2)cc1C` [Example 16] stands 2.39.
In turn, `CCN(C)C=Nc1ccc(Oc2ccc(I)cn2)cc1C` [Example 17] came in with a logPa of 1.87.
Still for that read-out and setting: for `CCN(C=Nc1cc(C)c(Oc2cc(C(F)(F)F)cc(Cl)n2)cc1C)CC` [Example 18] the value was 2.59.
The same measure, in the same setting: under `CCCN(C)C=Nc1cc(C)c(Oc2cc(C(F)(F)F)cc(Cl)n2)cc1C` [Example 19] stands 2.66.
Same read-out and setting: under `Cc1cc(Oc2cc(C(F)(F)F)cc(Cl)n2)c(C(C)(C)C)cc1N=CN(C)C(C)C` [Example 20] stands 3.17; under `Cc1cc(Oc2cc(C(F)(F)F)cc(Cl)n2)c(C(C)C)cc1N=CN(C)C(C)C` [Example 21], 2.97; under `CCN(C)C=Nc1cc(C(C)(C)C)c(Oc2cc(C(F)(F)F)cc(Cl)n2)cc1C` [Example 22], 2.83.
`CCN(C)C=Nc1cc(C)c(Oc2cc(Cl)cc(C)n2)cc1C` [Example 23]: the logPa is recorded as 1.58.
Still for that read-out and setting: under `CCN(C)C=Nc1cc(C(C)C)c(Oc2cc(C(F)(F)F)cc(Cl)n2)cc1C` [Example 24] stands 2.87.
On the same count and under the same terms, for `CCN(C)C=Nc1cc(C)c(Oc2cc(C(F)(F)F)cc(C)n2)cc1C` [Example 25] the value was 2.19; for `CCN(C)C=Nc1cc(C)c(Oc2cccc(Cl)n2)cc1C` [Example 26], 1.78.
On the same count and under the same terms, for `CCN(C)C=Nc1cc(C)c(Oc2cc(C(F)(F)F)ccn2)cc1C` [Example 27] the value was 1.96; for `CCN(C)C=Nc1cc(C)c(Oc2ncc(Cl)cc2Cl)cc1C` [Example 28], 2.00.
For `CCCN(C)C=Nc1cc(C)c(Oc2ncc(Cl)cc2Cl)cc1C` [Example 29], the logPa is recorded as 2.22.
On the same count and under the same terms, for `CCCc1cc(CCC)nc(Oc2cc(C)c(N=CN(C)CC)cc2C)c1` [Example 30] the value was 2.97.
In turn, `CCN(C)C=Nc1cc(C)c(Oc2cc(C#N)ccn2)cc1C` [Example 31] had a logPa of 1.42.
Compound `Cc1cc(Oc2ncc(Cl)cc2Cl)c(C)cc1N=CN(C)C(C)C` [Example 32] displayed a logPa of 2.24.
Regarding `CCN(C)C=Nc1cc(C)c(Oc2cc(Cl)cc(C(C)C)n2)cc1C` [Example 33], the logPa is reported as 2.18.
Still for that read-out and setting: under `Cc1cc(Oc2cc(Cl)cc(C(C)C)n2)c(C)cc1N=CN(C)C(C)C` [Example 34] stands 2.34.
On the same count and under the same terms, for `CCN(C)C=Nc1cc(C)c(Oc2ccc(C#N)cn2)cc1C` [Example 35] the value was 1.47.
On the same count and under the same terms, for `CCCN(C)C=Nc1cc(C)c(Oc2ccc(C#N)cn2)cc1C` [Example 36] the value was 1.63; for `C=CCN(C)C=Nc1cc(C)c(Oc2ccc(C#N)cn2)cc1C` [Example 37], 1.56.
For `Cc1cc(Oc2ccc(C#N)cn2)c(C)cc1N=CN1CCCCC1` [Example 38], the logPa amounted to 1.58.
On the same count and under the same terms, under `Cc1cc(Oc2ccc(C#N)cn2)c(C)cc1N=CN1CCCC1` [Example 39] stands 1.46; under `CCc1cc(Cl)cc(Oc2cc(C)c(N=CN3CCCCC3)cc2C)n1` [Example 40], 2.04; under `CCc1cc(Cl)cc(Oc2cc(C)c(N=CN3CCCC3)cc2C)n1` [Example 41], 1.95.
Same read-out and setting: for `CCCN(C)C=Nc1cc(C)c(Oc2cc(Cl)cc(CC)n2)cc1C` [Example 42] the value was 2.00; for `Cc1cc(Oc2ncc(C(F)(F)F)cc2Cl)c(C)cc1N=CN(C)C(C)C` [Example 43], 2.29.
Same read-out and setting: under `CCN(C)C=Nc1cc(C)c(Oc2ncc(C(F)(F)F)cc2Cl)cc1C` [Example 44] stands 2.15; under `CCN(C)C=Nc1cc(C)c(Oc2cccc(-c3ccc(Cl)cc3)n2)cc1C` [Example 45], 2.66.
In turn, `Cc1cc(Oc2cccc(Cl)n2)c(C)cc1N=CN1CCCC1` [Example 46] came in with a logPa of 1.81.
Same read-out and setting: for `Cc1cc(Oc2cccc(Cl)n2)c(C)cc1N=CN1CCCCC1` [Example 47] the value was 1.96; for `CCc1cc(Cl)cc(Oc2cc(C)c(N=CN(C)CC)cc2C)n1` [Example 48], 1.98.
Still for that read-out and setting: for `CCN(C)C=Nc1cc(C)c(Oc2ccc(C)c(Cl)n2)cc1C` [Example 49] the value was 2.01; for `Cc1cc(Oc2ccc(C)c(Cl)n2)c(C)cc1N=CN1CCCCC1` [Example 50], 2.21.
On the same count and under the same terms, under `CCCN(C)C=Nc1cc(C)c(Oc2ccc(C)c(Cl)n2)cc1C` [Example 51] stands 2.17.
As for `Cc1cc(Oc2ccc(C)c(Cl)n2)c(C)cc1N=CN1CCCC1` [Example 52], the logPa came to 2.05.
Still for that read-out and setting: for `Cc1cc(Oc2cc(Cl)cc(C(C)C)n2)c(C)cc1N=CN1CCCCC1` [Example 53] the value was 2.34; for `CCCN(C)C=Nc1cc(C)c(Oc2cc(Cl)cc(C(C)C)n2)cc1C` [Example 54], 2.35.
On the same count and under the same terms, under `Cc1cc(Oc2cc(Cl)cc(C(C)C)n2)c(C)cc1N=CN1CCCC1` [Example 55] stands 2.22.
The same measure, in the same setting: for `CCN(C)C=Nc1cc(C)c(Oc2cc(Cl)ccn2)cc1C` [Example 56] the value was 1.75; for `CCN(C)C=Nc1cc(C)c(Oc2cccc(Br)n2)cc1C` [Example 57], 1.89.
Regarding `CCCN(C)C=Nc1cc(C)c(Oc2cccc(Br)n2)cc1C` [Example 58], the logPa is 2.04.
Same read-out and setting: for `Cc1cc(Oc2cccc(Br)n2)c(C)cc1N=CN1CCCCC1` [Example 59] the value was 2.06; for `Cc1cc(Oc2cccc(Br)n2)c(C)cc1N=CN1CCCC1` [Example 60], 1.90.
`CCN(C)C=Nc1cc(C)c(Oc2cccc(C(F)(F)F)n2)cc1C` [Example 61]: the logPa was found to be 1.98.
Still for that read-out and setting: for `CCN(C)C=Nc1cc(C)c(Oc2cc(C(F)(F)F)c(F)c(F)n2)cc1C` [Example 62] the value was 2.31; for `CCCN(C)C=Nc1cc(C)c(Oc2cc(C(F)(F)F)c(F)c(F)n2)cc1C` [Example 63], 2.48; for `CCN(C)C=Nc1cc(C)c(Oc2ccc(C)nc2)cc1C` [Example 65], 0.60.
Same read-out and setting: under `CCN(C)C=Nc1cc(C)c(Oc2cccnc2C)cc1C` [Example 66] stands 1.56.
Take `CCN(C)C=Nc1cc(C)c(Oc2cncc(Cl)c2)cc1C` [Example 67]: the logPa was 1.82.
Still for that read-out and setting: for `CCN(C)C=Nc1cc(C)c(Oc2ccnc(Cl)c2)cc1C` [Example 69] the value was 1.45.
Compound `Cc1cc(Oc2ccnc(Cl)c2)c(C)cc1N=CN1CCCCC1` [Example 70] showed a logPa of 1.66.
Compound `Cc1cc(Oc2ccnc(Cl)c2)c(C)cc1N=CN1CCCC1` [Example 71] came in with a logPa of 1.52.
The same measure, in the same setting: for `CCCN(C)C=Nc1cc(C)c(Oc2ccnc(Cl)c2)cc1C` [Example 72] the value was 1.56; for `C=CCN(C)C=Nc1cc(C)c(Oc2ccnc(CC)c2Cl)cc1C` [Example 73], 1.51; for `CCCN(C)C=Nc1cc(C)c(Oc2ccnc(CC)c2Cl)cc1C` [Example 74], 1.59.
As for `CCc1nccc(Oc2cc(C)c(N=CN3CCCCC3)cc2C)c1Cl` [Example 75], the logPa was 1.56.
Same read-out and setting: under `CCc1nccc(Oc2cc(C)c(N=CN3CCCC3)cc2C)c1Cl` [Example 76] stands 1.43.

The data set is the same for the next values; noted with them: pH 2.3, C 18.
For `CCc1nccc(Oc2cc(C)c(N)cc2C)c1Cl` [4-(2-Ethyl-3-chloropyridyl-4-oxy)-2,5-xylidine], the “log P (pH 2.3)” value is listed as 1.66.
Regarding `Cc1cc([N+](=O)[O-])c(C)cc1Oc1cncc(Cl)c1` [4-(3-chlorpyridyl-5-oxy)-2,5-dimethylnitrobenzene], the “log P (pH 2.3)” value came out at 3.61.
Still for that read-out and setting: for `Cc1cc(Oc2cncc(Cl)c2)c(C)cc1N` [4-(3-chlorpyridyl-5-oxy)-2,5-xylidine] the value was 1.83; for `CCN(C)C=Nc1cc(C)c(Oc2cc(C(F)(F)F)cc(Cl)n2)cc1C` [Example 1, N-Ethyl-N-methyl-N′-[4-(2-chlor-4-trifluormethylpyridyl-6-oxy)-2,5-xylyl]form-amidine], 2.39.
The same measure, in the same setting: for `CCN(C)C=Nc1cc(C)c(Oc2cncc(Cl)c2)cc1C` [Example 64, N-Ethyl-N-methyl-N′-[4-(3-chlorpyridyl-5-oxy)-2,5-xylyl]formamidine] the value was 1.70.
The same measure, in the same setting: under `CCc1nccc(Oc2cc(C)c(N=CN(C)CC)cc2C)c1Cl` [Example 68, N-Ethyl-N-methyl-N′-[4-(2-ethyl-3-chloropyridyl-4-oxy)-2,5-xylyl]form-amidine] stands 1.47.

Values taken from patent US7994334B2, “Fungicide pyridinyloxy substituted phenylamidine derivatives” (Bayer Cropscience AG, priority 2005, dated 2011).
